In patent publication US11542259B2, “Compounds for the treatment of kinase-dependent disorders” (Exelixis, Inc., priority 2018, dated 2023):
Where a name gives a salt, the structure may show the parent alone.

How the values were obtained:
Format in all cases: cell-based
KDR = KDR (Homo sapiens (Human), UniProt P35968); assay: KDR autophosphorylation ELISA in HUVEC cells; settings: cellular, VEGF165 stimulated
Procedure, shortened: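 Phospho-KDR levels in lysates were measured by ELISA and referenced to stimulated-vehicle (100%) and unstimulated (0%) wells, IC50 from 4-parameter logistic fit. HUVEC, starved 24 h in serum-free medium, received an 8-point compound series (0.3% DMSO) for 1 h before a 5 min 100 ng/mL VEGF165 challenge.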

Met = Met (Homo sapiens (Human), UniProt P08581); assay: Met autophosphorylation ELISA in PC-3 cells; settings: cellular, HGF stimulated, read-out: c-Met IC50
Procedure, shortened: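 Phospho-Met (panTyr) sandwich ELISA on lysates of PC-3 cells given 100 ng/mL HGF for 10 min after 1 h compound exposure (8-point curve, 0.3% DMSO) following 3 h serum starvation. Normalised to HGF-stimulated DMSO and reference-inhibitor wells; 4-parameter logistic IC50.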

Mer = Mer (Homo sapiens (Human), UniProt Q12866); assay: Mer autophosphorylation ELISA in transient transfected 293A cells; settings: cellular, MERTK transfected 293A cells
Method: 293A cells (Thermo Fisher #R70507) were seeded at 1.5×10^6 cells/well onto 100 mm dish (Greiner #664169), in DMEM (Thermo Fisher #11995-040) containing 10% FBS (Thermo Fisher #26140-079), 1% MEM NEAA (Thermo Fisher #11140-050), 1% GlutaMax (Thermo Fisher #35050-061), and 1% Penicillin Streptomycin (Thermo Fisher #15140-122). 293A cells were incubated at 37° C., 5% CO2 for 24 h and then transfected with 6 μg MERTK DNA (Genecopoeia #EX-Z8208-M02) using TransIT LT1 transfection reagent (Mirus-Bio #MIR2305). After 24 h incubation, the transfected 293A cells were seeded at 1×10^5 cells/well onto 96-well plates (Corning #3904) in DMEM growth medium overnight. Test compounds were serially diluted to produce an 8-point dose curve in fresh serum-free medium to a final concentration of 0.3% DMSO (vehicle) and added to the cells and incubated for 1 h. Cells were then immediately lysed with 150 μL of cold 1× lysis buffer [20 mM Tris, 137 mM sodium chloride, 2 mM EDTA, 10% glycerol, 1% NP-40 alternative, 1 mM activated sodium orthovanadate, 1 mM PefaBloc SC (Sigma-Aldrich #11429868001), protease/phosphatase inhibitor tablet (Thermo Fisher #A32959)]. Lysates were clarified by centrifugation and 50 μL/well added into the human phospho-Mer DuoSet IC ELISA (R&D Systems #DYC2579-2). Assay was performed according to manufacturer's instructions and sample phospho-Mer concentrations were extrapolated using human phospho-Mer control (R&D Systems #841793) as a standard. Positive control wells (100% activity) contained DMSO-treated cell lysates. Negative control wells (0% activity) contained reference inhibitor-treated cell lysates. IC50 values were calculated by nonlinear regression analysis using a 4-parameter logistic curve fit in ActivityBase XE (IDBS).

AXL = AXL (Homo sapiens (Human), UniProt P30530); assay: AXL autophosphorylation ELISA in A-172 cells; settings: cellular, Gas6 stimulated
Procedure, shortened: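 Serum-starved (24 h) A-172 glioblastoma cells pretreated 1 h with compounds (8-point curve, 0.3% DMSO), then stimulated 15 min with 1 μg/mL Gas6. Lysate phospho-AXL measured by sandwich ELISA against a phospho-AXL standard; IC50 from 4-parameter logistic fit between DMSO and reference-inhibitor controls.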

Sequence of KDR (P35968 20-1356): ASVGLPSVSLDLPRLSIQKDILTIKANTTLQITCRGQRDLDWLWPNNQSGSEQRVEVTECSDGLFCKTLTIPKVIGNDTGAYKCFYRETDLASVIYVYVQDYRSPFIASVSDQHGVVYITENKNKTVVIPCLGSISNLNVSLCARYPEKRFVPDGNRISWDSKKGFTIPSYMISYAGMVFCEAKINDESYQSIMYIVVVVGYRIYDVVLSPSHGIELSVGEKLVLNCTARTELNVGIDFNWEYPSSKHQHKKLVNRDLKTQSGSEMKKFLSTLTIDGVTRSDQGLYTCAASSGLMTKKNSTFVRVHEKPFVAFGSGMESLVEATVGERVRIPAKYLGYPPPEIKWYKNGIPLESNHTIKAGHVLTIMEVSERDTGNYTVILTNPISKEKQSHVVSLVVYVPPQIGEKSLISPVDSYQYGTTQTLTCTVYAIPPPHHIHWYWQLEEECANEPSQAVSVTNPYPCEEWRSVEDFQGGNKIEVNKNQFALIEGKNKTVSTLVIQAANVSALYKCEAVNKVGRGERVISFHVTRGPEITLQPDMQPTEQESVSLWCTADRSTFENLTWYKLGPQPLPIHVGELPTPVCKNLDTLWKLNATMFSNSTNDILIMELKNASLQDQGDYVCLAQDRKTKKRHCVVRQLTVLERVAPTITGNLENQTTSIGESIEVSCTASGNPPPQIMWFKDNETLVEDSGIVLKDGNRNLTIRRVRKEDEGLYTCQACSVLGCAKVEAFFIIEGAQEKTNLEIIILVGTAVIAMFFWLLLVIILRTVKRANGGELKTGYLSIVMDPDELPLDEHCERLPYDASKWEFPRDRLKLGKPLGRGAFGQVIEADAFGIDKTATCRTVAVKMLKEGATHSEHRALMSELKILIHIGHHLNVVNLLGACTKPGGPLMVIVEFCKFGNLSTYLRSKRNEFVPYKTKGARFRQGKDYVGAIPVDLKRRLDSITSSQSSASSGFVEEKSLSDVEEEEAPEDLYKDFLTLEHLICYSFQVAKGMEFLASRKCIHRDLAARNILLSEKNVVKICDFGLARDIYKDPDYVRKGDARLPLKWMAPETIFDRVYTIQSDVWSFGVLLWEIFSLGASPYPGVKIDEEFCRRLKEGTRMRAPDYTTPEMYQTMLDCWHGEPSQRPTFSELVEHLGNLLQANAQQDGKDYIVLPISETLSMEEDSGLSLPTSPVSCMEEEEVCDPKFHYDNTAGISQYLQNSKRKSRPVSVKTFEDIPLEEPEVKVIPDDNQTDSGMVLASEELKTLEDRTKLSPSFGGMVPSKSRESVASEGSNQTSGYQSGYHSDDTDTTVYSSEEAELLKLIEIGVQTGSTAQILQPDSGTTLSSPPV
Sequence of Met (P08581 25-1390): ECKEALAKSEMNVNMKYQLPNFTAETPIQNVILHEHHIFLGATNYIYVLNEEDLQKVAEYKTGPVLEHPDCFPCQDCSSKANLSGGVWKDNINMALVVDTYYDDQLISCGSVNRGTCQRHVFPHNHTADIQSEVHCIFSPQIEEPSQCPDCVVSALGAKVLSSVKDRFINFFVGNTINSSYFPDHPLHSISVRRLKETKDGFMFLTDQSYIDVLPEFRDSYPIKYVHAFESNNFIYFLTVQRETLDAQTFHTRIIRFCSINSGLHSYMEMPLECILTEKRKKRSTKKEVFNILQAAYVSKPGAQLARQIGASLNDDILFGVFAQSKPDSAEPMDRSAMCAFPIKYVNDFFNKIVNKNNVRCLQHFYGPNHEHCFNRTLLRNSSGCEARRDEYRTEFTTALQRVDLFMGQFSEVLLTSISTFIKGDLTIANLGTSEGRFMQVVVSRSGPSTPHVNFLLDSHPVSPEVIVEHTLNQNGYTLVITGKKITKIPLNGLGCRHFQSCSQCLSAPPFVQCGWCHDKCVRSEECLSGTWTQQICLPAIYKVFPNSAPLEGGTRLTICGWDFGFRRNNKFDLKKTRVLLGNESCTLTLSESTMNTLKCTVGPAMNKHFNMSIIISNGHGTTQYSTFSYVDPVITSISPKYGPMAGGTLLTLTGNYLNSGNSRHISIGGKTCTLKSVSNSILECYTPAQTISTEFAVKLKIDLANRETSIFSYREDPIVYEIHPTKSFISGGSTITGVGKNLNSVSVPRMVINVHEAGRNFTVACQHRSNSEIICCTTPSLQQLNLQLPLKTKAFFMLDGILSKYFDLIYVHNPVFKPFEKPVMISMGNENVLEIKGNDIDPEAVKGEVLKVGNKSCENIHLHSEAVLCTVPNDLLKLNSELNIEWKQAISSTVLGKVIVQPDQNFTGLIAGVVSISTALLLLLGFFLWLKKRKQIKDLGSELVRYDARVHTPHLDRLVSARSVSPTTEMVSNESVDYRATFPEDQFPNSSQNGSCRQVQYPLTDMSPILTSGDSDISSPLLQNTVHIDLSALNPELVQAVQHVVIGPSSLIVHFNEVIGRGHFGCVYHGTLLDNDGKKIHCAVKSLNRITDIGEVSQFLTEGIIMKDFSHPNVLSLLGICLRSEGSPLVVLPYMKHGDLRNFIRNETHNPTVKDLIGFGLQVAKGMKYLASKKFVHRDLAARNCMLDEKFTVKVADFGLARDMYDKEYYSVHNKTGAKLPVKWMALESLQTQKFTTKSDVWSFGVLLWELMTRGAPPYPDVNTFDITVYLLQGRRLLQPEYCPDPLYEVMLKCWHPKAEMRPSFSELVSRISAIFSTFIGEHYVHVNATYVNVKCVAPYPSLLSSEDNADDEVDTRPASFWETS
Sequence of Mer (Q12866 21-999): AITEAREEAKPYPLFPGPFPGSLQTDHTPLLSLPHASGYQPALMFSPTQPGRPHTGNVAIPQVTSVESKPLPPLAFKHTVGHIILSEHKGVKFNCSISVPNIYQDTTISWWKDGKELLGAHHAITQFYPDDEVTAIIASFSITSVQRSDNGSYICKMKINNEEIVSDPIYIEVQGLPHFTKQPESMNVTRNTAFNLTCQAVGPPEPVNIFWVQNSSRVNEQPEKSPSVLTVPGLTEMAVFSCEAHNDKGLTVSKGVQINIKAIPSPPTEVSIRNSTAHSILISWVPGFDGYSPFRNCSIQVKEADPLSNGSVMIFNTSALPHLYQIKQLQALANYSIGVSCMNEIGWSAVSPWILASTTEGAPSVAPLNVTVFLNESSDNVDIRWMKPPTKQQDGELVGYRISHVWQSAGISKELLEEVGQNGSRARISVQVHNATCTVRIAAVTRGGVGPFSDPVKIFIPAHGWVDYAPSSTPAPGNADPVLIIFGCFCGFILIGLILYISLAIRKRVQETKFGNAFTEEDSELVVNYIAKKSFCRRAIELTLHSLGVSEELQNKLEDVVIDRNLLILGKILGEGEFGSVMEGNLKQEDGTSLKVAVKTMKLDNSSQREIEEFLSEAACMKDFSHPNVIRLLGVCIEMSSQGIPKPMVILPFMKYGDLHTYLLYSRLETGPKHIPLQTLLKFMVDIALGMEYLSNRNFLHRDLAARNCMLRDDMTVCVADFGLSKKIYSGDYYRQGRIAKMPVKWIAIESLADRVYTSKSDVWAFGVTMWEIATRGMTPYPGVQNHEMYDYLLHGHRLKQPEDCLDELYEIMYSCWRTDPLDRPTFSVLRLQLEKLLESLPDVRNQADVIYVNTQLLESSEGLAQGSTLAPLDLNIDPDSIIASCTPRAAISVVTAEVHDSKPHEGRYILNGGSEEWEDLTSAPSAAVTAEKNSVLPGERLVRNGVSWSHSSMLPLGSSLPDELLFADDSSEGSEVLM
Sequence of AXL (P30530 26-894): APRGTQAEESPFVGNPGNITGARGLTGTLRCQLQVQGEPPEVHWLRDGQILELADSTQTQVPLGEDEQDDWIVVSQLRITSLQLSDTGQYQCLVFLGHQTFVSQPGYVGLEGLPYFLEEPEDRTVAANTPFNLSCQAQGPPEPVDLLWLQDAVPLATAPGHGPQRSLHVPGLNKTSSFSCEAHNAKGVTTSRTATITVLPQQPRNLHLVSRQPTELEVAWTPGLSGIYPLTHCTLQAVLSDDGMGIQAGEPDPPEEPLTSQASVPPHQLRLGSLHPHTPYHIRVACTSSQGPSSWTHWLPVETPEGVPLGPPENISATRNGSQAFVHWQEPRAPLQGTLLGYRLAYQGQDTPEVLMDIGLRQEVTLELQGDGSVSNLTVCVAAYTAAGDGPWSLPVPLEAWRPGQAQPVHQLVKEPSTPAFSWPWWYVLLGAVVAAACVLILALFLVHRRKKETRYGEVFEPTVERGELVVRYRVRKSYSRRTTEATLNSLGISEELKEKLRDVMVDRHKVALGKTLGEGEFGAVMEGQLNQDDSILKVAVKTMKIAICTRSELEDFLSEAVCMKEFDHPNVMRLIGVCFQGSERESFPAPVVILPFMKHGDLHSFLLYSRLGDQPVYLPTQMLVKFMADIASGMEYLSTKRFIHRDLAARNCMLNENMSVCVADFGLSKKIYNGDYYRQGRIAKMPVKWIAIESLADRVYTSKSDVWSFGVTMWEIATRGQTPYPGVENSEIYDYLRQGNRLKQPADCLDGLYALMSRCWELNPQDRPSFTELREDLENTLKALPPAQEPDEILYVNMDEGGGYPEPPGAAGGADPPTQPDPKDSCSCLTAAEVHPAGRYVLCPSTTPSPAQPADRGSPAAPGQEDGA

Row | IC50 (KDR) | IC50 (Met) | IC50 (Mer) | IC50 (AXL) | Compound
1 | ≤ 10 nM | ≤ 10 nM | ≤ 10 nM | ≤ 10 nM | O=C(Nc1ccc(F)cc1)C1(C(=O)Nc2ccc(Oc3ccnc4cc(OCCO)c(-c5ncco5)cc34)cc2)CC1 [Compound 50, 1-N′-(4-Fluorophenyl)-1-N-[4-[7-(2-hydroxyethoxy)-6-(1,3-oxazol-2-yl)quinolin-4-yl]oxyphenyl]cyclopropane-1,1-dicarboxamide]
2 | 10 to 100 nM | 10 to 100 nM | 10 to 100 nM | 10 to 100 nM | CNC(=O)c1cc2nccc(Oc3ccc(NC(=O)C4(C(=O)Nc5ccc(F)cc5)CC4)cc3F)c2cc1C [Compound 289, 1-N′-[3-Fluoro-4-[6-methyl-7-(methylcarbamoyl)quinolin-4-yl]oxyphenyl]-1-N-(4-fluorophenyl)cyclopropane-1,1-dicarboxamide]
3 | 10 to 100 nM | 100 to 300 nM | > 300 nM | 10 to 100 nM | COc1cc2nccc(Oc3ccc(NC(=O)C4(C(=O)Nc5ccc(F)cc5)CC4)cc3)c2cc1C(=O)NOCC(O)CO (single isomer, unassigned) [Compound 31, 1-N-[4-[6-(2,3-dihydroxypropoxycarbamoyl)-7-methoxyquinolin-4-yl]oxyphenyl]-1-N′-(4-fluorophenyl)cyclopropane-1,1-dicarboxamide]
4 | 10 to 100 nM | 10 to 100 nM | 10 to 100 nM | 10 to 100 nM | Cc1cc2c(Oc3ccc(NC(=O)C4(C(=O)Nc5ccc(F)cc5)CC4)cc3F)ccnc2cc1C(N)=O [Compound 293, 1-N′-[4-(7-Carbamoyl-6-methylquinolin-4-yl)oxy-3-fluorophenyl]-1-N-(4-fluorophenyl)cyclopropane-1,1-dicarboxamide]
5 | 10 to 100 nM | 10 to 100 nM | ≤ 10 nM | ≤ 10 nM | CC(O)COc1cc2nccc(Oc3ccc(NC(=O)C4(C(=O)Nc5ccc(F)cc5)CC4)cc3)c2cc1-c1ncco1 (centres unmarked) [Compound 125, 1-N′-(4-Fluorophenyl)-1-N-[4-[7-(2-hydroxypropoxy)-6-(1,3-oxazol-2-yl)quinolin-4-yl]oxyphenyl]cyclopropane-1,1-dicarboxamide]
6 | 100 to 300 nM | ≤ 10 nM | ≤ 10 nM | ≤ 10 nM | CNC(=O)c1cc2nccc(Oc3cc(F)c(NC(=O)C4(C(=O)Nc5ccc(F)cc5)CC4)cc3F)c2cc1C [Compound 290, 1-N′-[2,5-Difluoro-4-[6-methyl-7-(methylcarbamoyl)quinolin-4-yl]oxyphenyl]-1-N-(4-fluorophenyl)cyclopropane-1,1-dicarboxamide]
7 | ≤ 10 nM | 10 to 100 nM | ≤ 10 nM | ≤ 10 nM | CNC(=O)Nc1cc2c(Oc3ccc(NC(=O)C4(C(=O)Nc5ccc(F)cc5)CC4)cc3)ccnc2cc1OC [Compound 279, 1-N′-(4-Fluorophenyl)-1-N-[4-[7-methoxy-6-(methylcarbamoylamino)-quinolin-4-yl]oxyphenyl]cyclopropane-1,1-dicarboxamide]
8 | > 300 nM | 10 to 100 nM | 10 to 100 nM | 10 to 100 nM | CNC(=O)c1cc2nccc(Oc3cc(Cl)c(NC(=O)C4(C(=O)Nc5ccc(F)cc5)CC4)cc3F)c2cc1C [Compound 291, 1-N′-[2-Chloro-5-fluoro-4-[6-methyl-7-(methylcarbamoyl)quinolin-4-yl]oxyphenyl]-1-N-(4-fluorophenyl)cyclopropane-1,1-dicarboxamide]
9 | 10 to 100 nM | 10 to 100 nM | 10 to 100 nM | 10 to 100 nM | CNC(=O)c1cc2c(Oc3ccc(NC(=O)C4(C(=O)Nc5ccc(F)cc5Cl)CC4)cc3F)ccnc2cc1OC [Compound 264, 1-N′-(2-Chloro-4-fluorophenyl)-1-N-[3-fluoro-4-[7-methoxy-6-(methylcarbamoyl)quinolin-4-yl]oxyphenyl]cyclopropane-1,1-dicarboxamide]
10 | > 300 nM | 10 to 100 nM | 10 to 100 nM | 10 to 100 nM | CNC(=O)c1cc2nccc(Oc3c(F)cc(NC(=O)C4(C(=O)Nc5ccc(F)cc5)CC4)c(F)c3F)c2cc1C [Compound 292, 1-N-(4-Fluorophenyl)-1-N′-[2,3,5-trifluoro-4-[6-methyl-7-(methylcarbamoyl)quinolin-4-yl]oxyphenyl]cyclopropane-1,1-dicarboxamide]
11 | 100 to 300 nM | ≤ 10 nM | 100 to 300 nM | 10 to 100 nM | O=C(NOCCO)c1ccc2c(Oc3cc(F)c(NC(=O)C4(C(=O)Nc5ccc(F)cc5)CC4)cc3F)ccnc2c1 [Compound 302, 1-N′-[2,5-Difluoro-4-[7-(2-hydroxyethoxycarbamoyl)quinolin-4-yl]oxyphenyl]-1-N-(4-fluorophenyl)cyclopropane-1,1-dicarboxamide]
12 | 10 to 100 nM | 10 to 100 nM | 10 to 100 nM | 10 to 100 nM | NC(=O)c1cc2c(Oc3ccc(NC(=O)C4(C(=O)Nc5ccc(F)cc5)CC4)cc3)ccnc2cc1NCCCN1CCOCC1 [Compound 71, 1-N-[4-[6-Carbamoyl-7-(3-morpholin-4-ylpropylamino)quinolin-4-yl]oxyphenyl]-1-N′-(4-fluorophenyl)cyclopropane-1,1-dicarboxamide]
13 | 10 to 100 nM | 10 to 100 nM | 10 to 100 nM | 10 to 100 nM | CCc1noc(-c2cc3c(Oc4ccc(NC(=O)C5(C(=O)Nc6ccc(F)cc6)CC5)cc4)ccnc3cc2OC)n1 [Compound 283, 1-N-[4-[6-(3-Ethyl-1,2,4-oxadiazol-5-yl)-7-methoxyquinolin-4-yl]oxyphenyl]-1-N′-(4-fluorophenyl)cyclopropane-1,1-dicarboxamide Hydrochloride]
14 | ≤ 10 nM | 10 to 100 nM | 10 to 100 nM | ≤ 10 nM | CNC(=O)c1cc2c(Oc3ccc(NC(=O)C4(C(=O)Nc5ccc(F)cc5)CC4)cc3)ccnc2cc1OCC(C)O (centres unmarked) [Compound 116, 1-N′-(4-Fluorophenyl)-1-N-[4-[7-(2-hydroxypropoxy)-6-(methylcarbamoyl)quinolin-4-yl]oxyphenyl]cyclopropane-1,1-dicarboxamide]
